Measurements published in patent US7101853B2 (Amylin Pharmaceuticals, Inc., priority 1997, dated 2006).
Read-outs that look alike come from different tables or passages of the source. Values belong to the compound of their own block, whether it stands above or below them. Where no end group is shown, it is not given here.

Legend:
treated test animals = experiment: Amylin activity in vivo in treated test animals
[1] = test system: ethanol- or indomethacin-induced gastritis in rats; conditions: cited from earlier work
[2] = in rats, in rabbits, and in humans with Paget's disease; cited from earlier work
[3] = target: amylin receptor (membrane-bound, rat basal forebrain membranes containing the nucleus accumbens and surrounding regions) (rat); experiment: competition with 125I-rat amylin on rat basal forebrain membranes
ethanol gavaged rat = experiment: Gastroprotection: ethanol-induced mucosal damage in the ethanol gavaged rat; format: in vivo
Source text: The gastroprotective properties of amylin in an animal model for gastritis—the ethanol gavaged rat—are described in this example.
Mucosal damage was scored between 0 (no damage) and 5 (100% of stomach covered by hyperemia and ulceration) by investigators blinded to the treatment. […] This prediction was obtained by applying the published relationship between injected subcutaneous dose and peak plasma concentration in rats. Young, A. A. et al., Drug Devel. Res. 37:231-48 (1996). […] Mimicking this physiological effect is unlikely to result in unwanted side effects, as is often the case with administration of unphysiological xenobiotics.

[4] = test system: Harlan Sprague Dawley (non-diabetic) rats; experiment: Phenol red gastric emptying assay, normal rats; format: in vivo, rat; conditions: 1 μg s.c. 5 minutes before gavage, normal HSD rats
Source text: (§1) Briefly, conscious rats received by gavage. […] Twenty minutes after gavage, rats were anesthetized using 5% halothane, the stomach exposed and clamped at the pyloric and lower esophageal sphincters using artery forceps, removed and opened into an alkaline solution which was made up to a fixed volume. Stomach content was derived from the intensity of the phenol red in the alkaline solution, measured by absorbance at a wavelength of 560 nm. In most experiments, the stomach was clear. In other experiments, particulate gastric contents were centrifuged to clear the solution for absorbance measurements. Where the diluted gastric contents remained turbid, the spectroscopic absorbance due to phenol red was derived as the difference between that present in alkaline vs acetified diluent. […] The quantity of phenol red that could be recovered from the upper gastrointestinal tact within […] of gavage was 89±4%; dye which appeared to bind irrecoverably to the gut luminal surface may have accounted for the balance. To compensate for this small loss, percent of stomach contents remaining after 20 minutes were expressed as a fraction of the gastric contents recovered from control rats sacrificed immediately after gavage in the same experiment. Percent gastric emptying contents remaining=(absorbance at 20 min)/(absorbance at 0 min). […]

diabetic BB rats = experiment: Phenol red gastric emptying assay, diabetic rats; format: in vivo, rat; conditions: 10 μg s.c. 5 minutes before gavage
Source text: as §1

[5] = test system: Harlan Sprague Dawley rats; experiment: Tritiated glucose gastric emptying assay; format: in vivo, rat
Procedure: Conscious, non-fasted, Harlan Sprague Dawley rats were restrained by the tail, the tip of which was anesthetized using 2% lidocaine. Tritium in plasma separated from tail blood collected 0, 15, 30, 60, 90 and 120 minutes after gavage was detected in a beta counter.

Compound: CC[C@H](C)[C@H](NC(=O)[C@@H]1CCCN1C(=O)CNC(=O)[C@H](Cc1ccccc1)NC(=O)[C@H](CC(N)=O)NC(=O)[C@H](CC(N)=O)NC(=O)[C@H](CO)NC(=O)[C@H](CO)NC(=O)[C@H](Cc1c[nH]cn1)NC(=O)[C@@H](NC(=O)[C@H](CC(C)C)NC(=O)[C@H](Cc1ccccc1)NC(=O)[C@H](CC(N)=O)NC(=O)[C@H](C)NC(=O)[C@H](CC(C)C)NC(=O)[C@H](CCCNC(=N)N)NC(=O)[C@H](CCC(N)=O)NC(=O)[C@@H](NC(=O)[C@H](C)NC(=O)[C@@H]1CSSC[C@H](NC(=O)[C@@H](N)CCCCN)C(=O)N[C@@H](CC(N)=O)C(=O)N[C@@H]([C@@H](C)O)C(=O)N[C@@H](C)C(=O)N[C@@H]([C@@H](C)O)C(=O)N1)[C@@H](C)O)C(C)C)C(=O)N[C@@H](CC(C)C)C(=O)N1CCC[C@H]1C(=O)N1CCC[C@H]1C(=O)N[C@H](C(=O)N[C@@H](CC(N)=O)C(=O)N[C@H](C(=O)NCC(=O)N[C@@H](CO)C(=O)N[C@@H](CC(N)=O)C(=O)N[C@H](C(=O)N[C@@H](Cc1ccc(O)cc1)C(N)=O)[C@@H](C)O)C(C)C)[C@@H](C)O [^25,28,29Pro-h-Amylin]
Amylin activity in vivo (treated test animals): show amylin activity in vivo

Compound: amylin (KCNTATCATQRLANFLVHSSNNFGAILSSTNVGSNTY; not fully specified (C-terminus, bridges); cysteine pairing not given here; UniProt P10997 34-70, looked up) [amylin as named in the cited literature, species form not specified at the place]
Effect on ethanol- or indomethacin-induced gastritis ([1]; intracerebroventricular injections): did have an effect
Effect on ethanol- or indomethacin-induced gastritis ([1]; subcutaneous injections): no effect
Lowering of plasma calcium [2]: up to 20%

Compound: des-^1Lys-h-amylin (CNTATCATQRLANFLVHSSNNFGAILSSTNVGSNTY)
Amylin activity in vivo (treated test animals): show amylin activity in vivo

IC50 [3]: 0.05 nM
Compound: purified human amylin (from UniProt P10997 34-70) (peptide)

Compound: rat amylin
Mucosal damage, percent of scores in the saline-treated controls (ethanol gavaged rat; 0.001 μg s.c. 5 min before gavage of 1 ml absolute ethanol): 95.3±15.2%
Mucosal damage, percent of scores in the saline-treated controls (ethanol gavaged rat; 0.01 μg s.c. 5 min before gavage of 1 ml absolute ethanol): 76.6±13.8%
Mucosal damage, percent of scores in the saline-treated controls (ethanol gavaged rat; 0.1 μg s.c. 5 min before gavage of 1 ml absolute ethanol): 70.1±10.7%
Mucosal damage, percent of scores in the saline-treated controls (ethanol gavaged rat; 0.3 μg s.c. 5 min before gavage of 1 ml absolute ethanol): 33.9±7.7%
Mucosal damage, percent of scores in the saline-treated controls (ethanol gavaged rat; 1 μg s.c. 5 min before gavage of 1 ml absolute ethanol): 59.6±5.8%
Mucosal damage, percent of scores in the saline-treated controls (ethanol gavaged rat; 3 μg s.c. 5 min before gavage of 1 ml absolute ethanol): 35.6±11.5%
Mucosal damage, percent of scores in the saline-treated controls (ethanol gavaged rat; 10 μg s.c. 5 min before gavage of 1 ml absolute ethanol): 32.9±8.3%
Predicted increase in circulating amylin concentrations at the 50% gastroprotective dose (ethanol gavaged rat; […] s.c., from published relationship between s.c. dose and peak plasma concentration in rats): 1.8 ± 0.4 pM
Reduction of the injury score (ethanol gavaged rat; as observed with the 10 μg dose): up to 67%
ED50 for the gastroprotective effect (ethanol gavaged rat; s.c., ±0.4 log units): 0.036 μg/rat
Suppression of gastric emptying [4]: complete
Suppression of gastric emptying (diabetic BB rats): complete
Effect on absorption of the label (plasma tritium) ([5]; s.c. 0.1-100 μg 1 minute before gavage): dose-dependently slowed and/or delayed the absorption of the label
ED50 derived from the logistic fit (plasma tritium AUC over 30 minutes vs dose) ([5]; s.c. 1 minute before gavage of tritiated glucose): 0.35 μg
